The values below come from US20140057978A1, “NOVEL USE OF BENZOFURANYLSULFONATES” (priority 2011, published 2014).

Structures are written as SMILES.

The test system of experiment [1] is severe contusive SCI in Lewis rats. Put plainly: BBB open field locomotor rating scale after severe spinal cord contusion injury. In kind it is in vivo. To be noted: rat, oral. On the procedure:
Oral treatment with a benzofuranylsulfonate after severe spinal cord contusion injury in the rat.
Thirteen week-old female Lewis rats (Charles River, Sulzfeld Germany) were housed under a 12:12 h dark/light regime and allowed free access to water and food. After one week of habituation the animals underwent general anesthesia with a mixture of isoflurane and air (induction: 5% isoflurane, maintenance: 2.2% isofluorane). A Th10 laminectomy was performed without rupturing the dura and a severe contusive SCI (25 gcm NYU/MASCIS II impactor) (Gruner, 1992) was induced. After suturing muscle and skin, a subcutaneous (s.c.) injection of 5 ml of Ringers Lactate was given. Bladders were emptied manually 2 times a day until spontaneous voiding returned (usually within 1 week). The lesion severity was verified by the impact velocity and contusion depth of the impactor rod. Animals with an impact velocity error >5% were excluded from further analysis. After injury, individual rats were randomly assigned into a treatment group. The following groups were used: […]
The BBB open field locomotor rating scale: The BBB locomotor rating scale was used to assess general locomotor performance (Basso et al., 1995). The score was assessed before injury and at 1, 3, 5, 7, 14, 21, 35, 42, 49, 56 and 63 days post operation (dpo) by 2 blinded observers.

Experiment [2] relates to embryonic DRG (Dorsal Root Ganglion) explants. Put plainly: Axonal growth in embryonic DRG explants. To be noted: 22 hours in vitro. In kind it is cell-based, rat. The procedure:
(§1) In vitro experiments with a benzofuranylsulfonate to improve axonal growth and Schwann cell expansion in embryonic DRG (Dorsal Root Ganglion) explants of rats.
(§2) Outgrowth studies with Methanesulfonic acid 2-(2,4-dichloro-benzoyl)-3-ureido-benzofuran-6-yl ester or the vehicle were performed on embryonic neural tissue. DRGs of thoracic, lumbar, and sacral levels were prepared from Wistar rat embryos E18-20 and processed in ice cold 0.6% glucose in PBS. Harvested DRGs were freed from attaching nerve fibres, dissected, and transferred onto PDL- and laminin-coated glass coverlips. To avoid cluster formation, a maximum of two DRG explants were transferred onto a single glass coverslip. Following an initial attachment phase, the pre-incubation medium was replaced by fully supplemented growth medium spiked with the test item (Methanesulfonic acid 2-(2,4-dichloro-benzoyl)-3-ureido-benzofuran-6-yl ester groups 2 and 3) or vehicle (DMF, group 1) and incubated at 37° C./10% CO2 for additional 22 hours in vitro. Following 22 hours in vitro, the DRG explants were fluorescently labelled and axonal growth and Schwann cell expansion were quantitatively assessed.
(§3) Group 1: Fully supplemented growth medium with 0.1% vehicle. Group 2: Fully supplemented growth medium with 0.1% vehicle and Methanesulfonic acid 2-(2,4-dichloro-benzoyl)-3-ureido-benzofuran-6-yl ester at a final concentration of 0.1 μM. Group 3: Fully supplemented growth medium with 0.1% vehicle and Methanesulfonic acid 2-(2,4-dichloro-benzoyl)-3-ureido-benzofuran-6-yl ester at a final concentration of 1 μM.
Morphometric data are presented as the mean values and standard deviations of the axonal growth area in μm^2.

In experiment [3] the test system is Schwann cells of embryonic DRG explants. In words: Schwann cell expansion in embryonic DRG explants. In kind it is cell-based, rat. To be noted: for Schwann cell expansion (numbers of Schwann cells outside the DRG explant core): 22 hours in vitro, versus vehicle. On the procedure:
as §1, §2, §3
Data are presented as the mean values and standard deviations of the numbers of Schwann cells outside the DRG explant core.

For the molecule `CS(=O)(=O)Oc1ccc2c(NC(N)=O)c(C(=O)c3ccc(Cl)cc3Cl)oc2c1` [methanesulfonic acid 2-(2,4-dichloro-benzoyl)-3-ureido-benzofuran-6-yl ester], in experiment [1] (10 mg in vehicle, vehicle animals 7.8), the “BBB score at steady state” value was 8.8. Also, in experiment [1] (10 mg, DPO 56, Students T-Test p=0.01), the “BBB performance compared to vehicle controls at the end of the experiment” value was “significantly better”. Also, the “growth area of outgrowing axons, as compared to vehicle-treated cultures” value in experiment [2] (0.1 μM) and in experiment [2] (1 μM) was “significant increase” throughout. Moreover, the “elevation of axonal growth areas (fold)” value in experiment [2] (1 μM, versus vehicle) is “nearly five fold”. Moreover, the “Schwann cell expansion (numbers of Schwann cells outside the DRG explant core)” value in experiment [3] (0.1 μM) and in experiment [3] (1 μM) was “significant increase” in each case. For the same molecule, in experiment [3] (treated cultures versus vehicle-treated cultures, highest at 0.1 μM), the “increase of Schwann cell numbers (fold)” value was “nearly fivefold”.
